From patent publication US20220387457A1 (Qlaris Bio, Inc., priority 2020, published 2022)

Experiments:
[1] = Plasma pharmacokinetics of CKLP1 and levcromakalim after topical dosing in hound dogs; assay type: in vivo, hound dog
Method: To assess the pharmacokinetic parameters, hound dogs (n=3) were treated with 50 μL topical ocular administration of 10 mM CKLP1 or vehicle (PBS) (n=2) in both eyes, once daily for eight days. Blood (approximately 3 mL) was collected in heparin blood collection tubes at eight different time points (5 minutes, 15 minutes, 30 minutes, 60 minutes, 2 hours, 4 hours, 8 hours and 24 hours) following treatment on days 1, 4 and 8. Plasma was separated from the blood by centrifugation at 2000 rpm for 5 minutes.
Immediately prior to analysis, tissues were thawed and their weight was measured. PBS was added at double the tissue volume homogenized in a rotor stator homogenizer for 30 seconds. […] Detection was accomplished using positive electrospray ionization with multiple-reaction monitoring (MRM). […] Data were acquired and analyzed using Waters MassLynx v4.1 software.

[2] = Plasma pharmacokinetics, 28-day topical ophthalmic dosing in beagle dogs; settings: beagle, dog, in vivo
Method: In the study, dogs (3 males and 3 females) received bilateral daily topical administration of 40 μL/eye of 2.0%, 4.0%, or 8.0% as measured in mg/mL (equivalent to 0.8, 1.6, or 3.2 mg CKLP1 per eye) of CKLP1 in phosphate buffered saline. Based on an average male dog weight of 7.9 kg at the start of the study, these doses were equivalent to 0.20 mg/kg, 0.41 mg/kg, or 0.81 mg/kg and based on an average female dog weight of 6.0 kg at the start of the study, these doses were equivalent to 0.27 mg/kg, 0.53 mg/kg, or 1.07 mg/kg. Blood was collected for toxicokinetic analysis pre-dose and at 1, 2, 4, 8, 12, and 24 hours post dosing on days 1 and 28. In addition, 2 animals of each gender were allowed 336 hours (14 days) of recovery time following the final dose, at which point final blood samples were obtained.

[3] = hound, dog, plasma, topical or ocular, 10 mM CKLP1, 50 µL in each of both eyes, levcromakalim after topical 10 mM CKLP1 once daily, Day 1
[4] = hound, dog, plasma, topical or ocular, 10 mM CKLP1, 50 µL in each of both eyes, levcromakalim after topical 10 mM CKLP1 once daily, Day 4
[5] = hound, dog, plasma, topical or ocular, 10 mM CKLP1, 50 µL in each of both eyes, levcromakalim after topical 10 mM CKLP1 once daily, Day 8
[6] = levcromakalim after topical 10 mM CKLP1 once daily, Day 1
[7] = levcromakalim after topical 10 mM CKLP1 once daily, Day 4
[8] = levcromakalim after topical 10 mM CKLP1 once daily, Day 8
[9] = female, topical or ocular, 3.2 mg
[10] = male, topical or ocular, 1.6 mg

Q: What does the source list for `CC1(C)Oc2ccc(C#N)cc2[C@@H](N2CCCC2=O)[C@@H]1O` [Levcromakalim, levcromakalim, reference compound]?
A: Maximum concentration of levcromakalim in plasma ([1]; after topical 10 mM CKLP1): 1.2 ± 0.2 ng/mL; concentration of levcromakalim found in plasma ([1]; after topical CKLP1): 1 ng/mL; AUC ([1]; hound, dog, plasma, topical or ocular, 10 mM): 3.88 ng·h/mL; AUC(0-t) [1, 3]: 5.09 ng·h/mL; Cmax [1, 3]: 1.3 ng/mL; Tmax ([1]; hound, dog, plasma, topical or ocular, 10 mM CKLP1, 50 µL in each of both eyes, levcromakalim after topical 10 mM CKLP1 once daily, Day 1, read-out: Tmax (converted)): 2 h; AUC(0-t) [1, 4]: 6.3 ng·h/mL; Cmax [1, 4]: 1.4 ng/mL; Tmax ([1]; hound, dog, plasma, topical or ocular, 10 mM CKLP1, 50 µL in each of both eyes, levcromakalim after topical 10 mM CKLP1 once daily, Day 4, read-out: Tmax (converted)): 2 h; AUC(0-t) [1, 5]: 2.67 ng·h/mL; Cmax [1, 5]: 1 ng/mL; Tmax ([1]; hound, dog, plasma, topical or ocular, 10 mM CKLP1, 50 µL in each of both eyes, levcromakalim after topical 10 mM CKLP1 once daily, Day 8, read-out: Tmax (converted)): 2 h; half-life ([1]; hound, dog, plasma, topical or ocular, 10 mM, levcromakalim after topical 10 mM CKLP1 once daily, Day 1): 74.3 min; half-life ([1]; hound, dog, plasma, topical or ocular, 10 mM, levcromakalim after topical 10 mM CKLP1 once daily, Day 4): 87.8 min; half-life ([1]; hound, dog, plasma, topical or ocular, 10 mM, levcromakalim after topical 10 mM CKLP1 once daily, Day 8): 126 min; Tmax ([1]; hound, dog, plasma, topical or ocular, 10 mM, time of maximum concentration (Tmax) of levcromakalim, after topical 10 mM CKLP1): ~2 h; half-life ([1]; hound, dog, plasma, topical, 10 mM, as stated in the summary): 120 min; Clast [1, 6]: 0.1 ng/mL; Tlast [1, 6]: 480 min; Clast [1, 7]: 0.1 ng/mL; Tlast [1, 7]: 480 min; Clast [1, 8]: 0.5 ng/mL; Tlast [1, 8]: 240 min; half-life ([2]; mean T1/2 of levcromakalim): 124 to 294 min; half-life ([2]; terminal elimination half-life): 120 to 300 min; concentration at 336 h ([2]; both sexes): < 0.499 ng/mL; AUC(0-inf) ([2]; female, topical or ocular, 0.27 mg/kg): 96.8 ng·h/mL; AUC(0-inf) [2, 9]: 304 ng·h/mL; t1/2 [2, 9]: 2.73 h; half-life ([2]; female, topical or ocular, 3.2 mg, t1/2): 294 min; AUC(0-inf) ([2]; female, topical or ocular, […]): 131 ng·h/mL; AUC(0-inf) ([2]; male, topical or ocular): 111 ng·h/mL; AUC(0-inf) [2, 10]: 185 ng·h/mL; Tmax [2, 10]: 4 h; AUC(0-inf) ([2]; male, topical or ocular, 3.2 mg): 371 ng·h/mL
